Reference: patent US10544106B2, “Certain chemical entities, compositions, and methods” (NeuPharma, Inc., priority 2016, dated 2020)

Assays:
EGFR (ErbB1) L858R = EGFR (ErbB1) L858R (Homo sapiens (Human), UniProt P00533, L858R); experiment: Z'-LYTE kinase inhibition assay against EGFR L858R; type: biochemical; conditions: compound at 100 nM; ATP concentration at Km
Description: (§1) Inhibitory activities of compounds against BTK, EGFR T790M, EGFR L858R, and EGFR L858R/T790M were measured using Z′-LYTE® Method from Life Technologies as briefly described in the following.
(§2) Test Compounds are screened in 1% DMSO (final) in the well. For 10 point titrations, 3-fold serial dilutions are conducted from the starting concentration. All ATP Solutions are diluted to a 4× working concentration in Kinase Buffer (50 mM HEPES pH 7.5, 0.01% BRIJ-35, 10 mM MgCl2, 1 mM EGTA). Peptide/Kinase Mixtures are diluted to a 2× working concentration in the appropriate Kinase Buffers as described below. • (i) Peptide/Kinase Mixtures for measurement of EGFR (ErbB1) L858R: • The 2×EGFR (ErbB1) L858R/Tyr 04 mixture is prepared in 50 mM HEPES pH 7.5, 0.01% BRIJ-35, 10 mM MgCl2, 4 mM MnCl2. 1 mM EGTA, 2 mM DTT. The final 10 μL Kinase Reaction consists of 0.2-1.68 ng EGFR (ErbB1) L858R and 2 μM Tyr 04 in 50 mM HEPES pH 7.5, 0.01% BRIJ-35, 10 mM MgCl2, 2 mM MnCl2, 1 mM EGTA, 1 mM DTT. After the 1 hour Kinase Reaction incubation, 5 μL of a 1:64 dilution of Development Reagent B is added. • (ii) Peptide/Kinase Mixtures for measurement of EGFR (ErbB1) T790M: The 2×EGFR (ErbB1) T790M/Tyr 04 mixture is prepared in 50 mM HEPES pH 6.5, 0.01% BRIJ-35, 10 mM MgCl2, 1 mM EGTA, 0.02% NaN3. The final 10 μL Kinase Reaction consists of 3.9-30.2 ng EGFR (ErbB1) T790M and 2 μM Tyr 04 in 50 mM HEPES pH 7.0, 0.01% BRIJ-35, 10 mM MgCl2, 1 mM EGTA, 0.01% NaN3. After the 1 hour Kinase Reaction incubation, 5 μL of a 1:64 dilution of Development Reagent B is added. • (iii) Peptide/Kinase Mixtures for measurement of EGFR (ErbB1) L858R/T790M: The 2×EGFR (ErbB1) T790M L858R/Tyr 04 mixture is prepared in 50 mM HEPES pH 6.5, 0.01% BRIJ-35, 10 mM MgCl2, 1 mM EGTA, 0.02% NaN3. The final 10 μL Kinase Reaction consists of 0.38-4.22 ng EGFR (ErbB1) T790M L858R and 2 μM Tyr 04 in 50 mM HEPES pH 7.0, 0.01% BRIJ-35, 10 mM MgCl2, 1 mM EGTA, 0.01% NaN3. After the 1 hour Kinase Reaction incubation, 5 μL of a 1:64 dilution of Development Reagent B is added. • (iv) Peptide/Kinase Mixtures for measurement of BTK: The 2×BTK/Tyr 01 mixture is prepared in 50 mM HEPES pH 7.5, 0.010/BRIJ-35, 10 mM MgCl2, 1 mM EGTA. The final 10 μL Kinase Reaction consists of 1.04-10.4 ng BTK and 2 μM Tyr 01 in 50 mM HEPES pH 7.5, 0.01% BRIJ-35, 10 mM MgCl2, 1 mM EGTA. After the 1 hour Kinase Reaction incubation, 5 μL of a 1:256 dilution of Development Reagent B is added.
(§3) Reaction starts by 30-second shaking of mixture consisting of 2.5 μL 4× test compound, 5 μL 2× kinase reaction mixture and 2.5 μL 4×ATP Solution on Bar-coded Corning, low volume NBS, black 384-well plate (Corning Cat. #3676). Then the mixture is incubated for 60-minute at room temperature for the kinase reaction, followed by addition of 5 μL of a 1:1024 dilution of development reagent A and 30-second plate shake. The mixture is then incubated for another 60-minute at room temperature for development reaction. Finally fluorescence is read by plate reader.
(§4) The Z′-LYTE assay was carried out with ATP concentration at Km. The scale utilized in Tables 2-6 is as follows: ++ more than 50% inhibition and + less than 50% inhibition.

EGFR (ErbB1) L858R/T790M = EGFR (ErbB1) L858R/T790M (Homo sapiens (Human), UniProt P00533, L858R/T790M); experiment: Z'-LYTE kinase inhibition assay against EGFR L858R/T790M; type: biochemical; conditions: compound at 100 nM; ATP concentration at Km
Description: as §1, §2, §3, §4

BTK = BTK (Homo sapiens (Human), UniProt Q06187); experiment: Z'-LYTE kinase inhibition assay against BTK; type: biochemical; conditions: for inhibition at 0.1 µM: compound at 100 nM, ATP concentration at Km; for IC50: series of concentrations, GraphPad Prism 5
Method in brief: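 Z′-LYTE FRET readout: 1.04-10.4 ng BTK with 2 μM Tyr 01 peptide, ATP at Km, in 50 mM HEPES pH 7.5, 10 mM MgCl2, 1 mM EGTA, 0.01% BRIJ-35, 1% DMSO. 60 min kinase reaction at room temperature, then 60 min development; IC50 from 10-point, 3-fold titrations.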

EGFR (ErbB1) T790M = EGFR (ErbB1) T790M (Homo sapiens (Human), UniProt P00533, T790M); experiment: Z'-LYTE kinase inhibition assay against EGFR T790M; type: biochemical; conditions: compound at 100 nM; ATP concentration at Km
Description: as §1, §2, §3, §4

OCI-Ly10 cells = experiment: OCI-Ly10 cell proliferation assay (Alamar Blue, 72 hours); type: cell-based; conditions: Homo sapiens
Description: OCI-Ly10 cells were cultured in Iscove's DMEM supplemented with 20% fetal bovine serum and 1× penicillin/streptomycin/glutamine. The cells were maintained in T175 flasks under 5% CO2 in a 37 ° C. humidified incubator for 5 days prior to plating and assay.
Cells were pooled by centrifugation (200 ref, 8 minutes) and resuspended in fresh medium to a concentration of 2.00E+05 cells/ml. 200 µl of the cell suspension was added to each well (40,000 cells/well) of a black-walled 96 well plate to which 1 μl of compound (n=3 per concentration) in 100% DMSO (0.5% final concentration) was added per well. Vehicle and cell free wells were also included in the assay. The dosed cells were cultured under normal conditions for 72 hours.
Cell proliferation is measured using the dye Alamar Blue (resazurin). Resazurin is reduced to resorufin by cellular enzymes and is fluorescent (544 nm excitation, 612 nm emission). Fluorescence intensity is proportional to cell number. Resazurin was prepared in PBS to a stock concentration of 440 μM. 40 μl of the 440 μM resazurin stock solution was added 3 hours prior to the 72 hour termination of the assay. The plate was returned to normal culture conditions and fluorescence measurements were collected using a Cytation3 multimode plate reader (Biotek) at 72 hours.
The scale utilized in Table 8 is as follows: ++ less than 50 nM and + greater than 50 nM.

Chain of BTK (Q06187 whole entry): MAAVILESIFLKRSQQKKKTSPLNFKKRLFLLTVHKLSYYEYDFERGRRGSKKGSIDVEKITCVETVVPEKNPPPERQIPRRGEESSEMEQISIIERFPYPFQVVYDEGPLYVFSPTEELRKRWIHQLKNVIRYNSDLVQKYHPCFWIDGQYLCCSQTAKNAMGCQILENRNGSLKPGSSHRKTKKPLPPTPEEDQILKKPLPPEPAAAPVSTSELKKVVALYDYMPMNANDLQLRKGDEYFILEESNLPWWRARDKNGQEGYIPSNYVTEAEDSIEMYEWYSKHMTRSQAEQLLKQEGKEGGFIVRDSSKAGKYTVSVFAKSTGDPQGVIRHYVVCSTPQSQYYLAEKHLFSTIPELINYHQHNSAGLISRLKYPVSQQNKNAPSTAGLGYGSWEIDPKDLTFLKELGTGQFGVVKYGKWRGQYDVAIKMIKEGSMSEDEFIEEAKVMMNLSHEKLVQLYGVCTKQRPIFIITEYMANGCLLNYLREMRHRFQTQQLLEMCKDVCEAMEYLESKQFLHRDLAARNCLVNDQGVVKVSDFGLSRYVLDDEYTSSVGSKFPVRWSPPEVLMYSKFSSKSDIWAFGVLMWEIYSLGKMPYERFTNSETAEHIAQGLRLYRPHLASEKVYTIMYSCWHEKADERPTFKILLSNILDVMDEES
Chain of EGFR (ErbB1) L858R (P00533 25-1210 L858R): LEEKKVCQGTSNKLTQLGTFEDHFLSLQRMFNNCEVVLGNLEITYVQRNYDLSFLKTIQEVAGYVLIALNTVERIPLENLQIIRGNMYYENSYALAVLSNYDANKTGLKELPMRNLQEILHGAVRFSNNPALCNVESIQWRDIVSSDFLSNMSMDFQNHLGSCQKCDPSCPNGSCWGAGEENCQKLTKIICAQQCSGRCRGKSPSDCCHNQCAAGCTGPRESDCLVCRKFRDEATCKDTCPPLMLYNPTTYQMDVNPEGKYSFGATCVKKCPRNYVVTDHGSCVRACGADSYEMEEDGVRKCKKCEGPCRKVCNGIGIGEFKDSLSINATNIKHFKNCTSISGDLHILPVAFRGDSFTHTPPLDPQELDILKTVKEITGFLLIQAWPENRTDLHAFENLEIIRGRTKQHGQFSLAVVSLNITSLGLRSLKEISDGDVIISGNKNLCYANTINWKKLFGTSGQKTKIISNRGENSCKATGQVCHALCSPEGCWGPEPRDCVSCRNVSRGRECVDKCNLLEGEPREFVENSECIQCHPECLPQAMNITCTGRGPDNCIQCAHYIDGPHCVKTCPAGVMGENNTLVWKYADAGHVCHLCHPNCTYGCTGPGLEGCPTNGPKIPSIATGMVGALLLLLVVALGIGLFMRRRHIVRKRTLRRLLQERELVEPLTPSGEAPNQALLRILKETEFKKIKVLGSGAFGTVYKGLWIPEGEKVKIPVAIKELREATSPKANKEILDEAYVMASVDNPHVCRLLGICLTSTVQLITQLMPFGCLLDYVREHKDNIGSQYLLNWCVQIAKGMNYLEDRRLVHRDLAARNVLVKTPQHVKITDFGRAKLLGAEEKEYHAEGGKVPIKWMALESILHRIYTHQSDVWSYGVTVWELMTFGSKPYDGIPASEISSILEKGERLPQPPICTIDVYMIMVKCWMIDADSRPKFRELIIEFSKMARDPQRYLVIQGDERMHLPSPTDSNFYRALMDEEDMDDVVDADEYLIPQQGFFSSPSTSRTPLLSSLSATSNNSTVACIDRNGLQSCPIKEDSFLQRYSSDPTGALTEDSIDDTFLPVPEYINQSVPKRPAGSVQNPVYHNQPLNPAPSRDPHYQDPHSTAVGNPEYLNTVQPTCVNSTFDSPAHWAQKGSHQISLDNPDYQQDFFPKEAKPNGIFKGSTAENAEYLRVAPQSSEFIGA
Chain of EGFR (ErbB1) T790M (P00533 25-1210 T790M): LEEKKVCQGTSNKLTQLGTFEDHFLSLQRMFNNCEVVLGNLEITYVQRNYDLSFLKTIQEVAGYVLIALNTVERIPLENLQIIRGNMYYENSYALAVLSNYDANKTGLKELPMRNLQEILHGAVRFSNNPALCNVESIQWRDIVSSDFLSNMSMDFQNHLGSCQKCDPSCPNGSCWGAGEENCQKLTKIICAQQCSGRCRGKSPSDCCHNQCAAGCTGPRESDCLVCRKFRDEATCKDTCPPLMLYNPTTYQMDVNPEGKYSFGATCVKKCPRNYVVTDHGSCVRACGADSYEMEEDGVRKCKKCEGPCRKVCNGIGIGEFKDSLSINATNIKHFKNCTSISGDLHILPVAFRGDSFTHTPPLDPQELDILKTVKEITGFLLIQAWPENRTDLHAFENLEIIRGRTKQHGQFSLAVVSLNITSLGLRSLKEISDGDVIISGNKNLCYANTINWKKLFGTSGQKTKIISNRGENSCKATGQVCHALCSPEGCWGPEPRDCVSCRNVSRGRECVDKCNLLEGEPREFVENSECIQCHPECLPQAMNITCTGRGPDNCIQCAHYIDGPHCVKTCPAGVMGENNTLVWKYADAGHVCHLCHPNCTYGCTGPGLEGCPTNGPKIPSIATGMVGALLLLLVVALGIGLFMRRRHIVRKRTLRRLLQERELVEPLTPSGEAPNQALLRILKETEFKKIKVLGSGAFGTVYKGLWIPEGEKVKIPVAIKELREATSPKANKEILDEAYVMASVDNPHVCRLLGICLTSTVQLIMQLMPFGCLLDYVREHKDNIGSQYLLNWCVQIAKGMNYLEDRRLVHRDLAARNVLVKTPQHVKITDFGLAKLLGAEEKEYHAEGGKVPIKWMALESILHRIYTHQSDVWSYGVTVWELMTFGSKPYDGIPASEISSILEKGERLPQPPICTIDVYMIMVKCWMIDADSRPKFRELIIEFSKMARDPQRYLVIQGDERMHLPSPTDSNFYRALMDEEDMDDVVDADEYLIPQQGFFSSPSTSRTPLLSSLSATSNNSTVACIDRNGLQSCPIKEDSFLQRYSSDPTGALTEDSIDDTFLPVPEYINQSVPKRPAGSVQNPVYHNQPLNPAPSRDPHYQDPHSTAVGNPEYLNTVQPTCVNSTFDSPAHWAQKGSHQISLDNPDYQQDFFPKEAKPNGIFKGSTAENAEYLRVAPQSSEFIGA
Chain of EGFR (ErbB1) L858R/T790M (P00533 25-1210 T790M/L858R): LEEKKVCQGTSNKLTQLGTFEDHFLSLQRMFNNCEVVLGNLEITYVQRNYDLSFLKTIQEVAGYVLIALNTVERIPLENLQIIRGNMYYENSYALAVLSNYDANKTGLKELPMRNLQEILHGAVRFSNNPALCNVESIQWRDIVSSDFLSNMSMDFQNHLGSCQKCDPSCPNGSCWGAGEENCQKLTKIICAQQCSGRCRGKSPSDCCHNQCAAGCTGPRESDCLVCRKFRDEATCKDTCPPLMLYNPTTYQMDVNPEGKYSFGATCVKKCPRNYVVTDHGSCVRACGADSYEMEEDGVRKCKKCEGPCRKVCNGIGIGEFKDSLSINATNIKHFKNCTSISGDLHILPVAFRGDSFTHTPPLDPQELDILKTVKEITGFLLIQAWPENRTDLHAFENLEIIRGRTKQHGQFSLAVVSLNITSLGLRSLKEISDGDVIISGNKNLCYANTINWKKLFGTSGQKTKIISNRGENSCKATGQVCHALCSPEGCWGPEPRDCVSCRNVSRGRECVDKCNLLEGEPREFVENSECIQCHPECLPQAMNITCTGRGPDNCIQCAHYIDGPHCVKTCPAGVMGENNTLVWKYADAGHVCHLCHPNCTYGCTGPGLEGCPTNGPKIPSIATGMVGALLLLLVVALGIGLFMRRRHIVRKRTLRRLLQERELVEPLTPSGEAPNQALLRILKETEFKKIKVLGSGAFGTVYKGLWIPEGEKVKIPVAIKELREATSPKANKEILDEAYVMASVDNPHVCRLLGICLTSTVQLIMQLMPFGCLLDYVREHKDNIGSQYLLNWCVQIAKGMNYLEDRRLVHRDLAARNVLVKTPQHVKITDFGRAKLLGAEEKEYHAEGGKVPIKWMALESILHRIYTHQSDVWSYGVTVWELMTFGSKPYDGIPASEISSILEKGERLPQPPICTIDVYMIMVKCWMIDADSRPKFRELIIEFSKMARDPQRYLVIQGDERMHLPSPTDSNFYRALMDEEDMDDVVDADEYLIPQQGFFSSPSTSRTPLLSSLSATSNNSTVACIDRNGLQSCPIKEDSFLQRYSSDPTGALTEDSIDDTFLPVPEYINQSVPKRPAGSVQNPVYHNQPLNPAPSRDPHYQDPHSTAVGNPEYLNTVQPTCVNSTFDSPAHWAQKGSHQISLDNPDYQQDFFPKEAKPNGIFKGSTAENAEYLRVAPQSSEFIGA

Row | SMILES | inhibition at 0.1 µM (EGFR (ErbB1) L858R) | inhibition at 0.1 µM (EGFR (ErbB1) L858R/T790M) | inhibition at 0.1 µM (BTK) | IC50 (BTK) | inhibition at 0.1 µM (EGFR (ErbB1) T790M) | IC50 (OCI-Ly10 cells)
1 | CC#CC(=O)N1CCC(c2nc(-c3ccc(C(=O)Nc4ccccn4)cc3)n3c(N)nccc23)C1 (stereo not drawn) [C204, 4-(5-amino-1-(1-(but-2-ynoyl)pyrrolidin-3-yl)imidazo[1,5-c]pyrimidin-3-yl)-N-(pyridin-2-yl)benzamide] | – | – | > 50% | < 100 nM | – | < 50 nM
2 | C=CC(=O)N1CCC(c2nc(-c3ccc(Oc4cc(OC)ccn4)cc3)n3c(N)nccc23)C1 (stereo not drawn) [C210, 1-(3-(5-amino-3-(4-((4-methoxypyridin-2-yl)oxy)phenyl)imidazo[1,5-c]pyrimidin-1-yl)pyrrolidin-1-yl)prop-2-en-1-one] | – | – | > 50% | < 100 nM | – | < 50 nM
3 | C=CC(=O)N1CCC(c2nc(-c3ccc(C(=O)Nc4ccccn4)c(F)c3)n3c(N)nccc23)C1 (stereo not drawn) [C230, 4-(1-(1-acryloylpyrrolidin-3-yl)-5-amino-imidazo[1,5-c]pyrimidin-3-yl)-2-fluoro-N-(pyridin-2-yl)benzamide] | – | – | – | < 100 nM | – | < 50 nM
4 | C=CC(=O)N1CCCC(c2nc(-c3ccc(C(=O)Nc4ccccn4)cc3)n3c(N)nccc23)C1 (stereo not drawn) [C235, 4-(1-(1-acryloylpiperidin-3-yl)-5-amino-imidazo[1,5-c]pyrimidin-3-yl)-N-(pyridin-2-yl)benzamide] | – | – | – | < 100 nM | – | < 50 nM
5 | CC#CC(=O)N1CCCC(c2nc(-c3ccc(C(=O)Nc4ccccn4)cc3)n3c(N)nccc23)C1 (stereo not drawn) [C236, 4-(5-amino-1-(1-(but-2-ynoyl)piperidin-3-yl)imidazo[1,5-c]pyrimidin-3-yl)-N-(pyridin-2-yl)benzamide] | – | – | – | < 100 nM | – | < 50 nM
6 | C=CC(=O)N1CCC(c2nc(-c3ccc(C(=O)Nc4cc(C5CC5)ccn4)cc3)n3c(N)nccc23)C1 (stereo not drawn) [C238, 4-(1-(1-acryloylpyrrolidin-3-yl)-5-amino-imidazo[1,5-c]pyrimidin-3-yl)-N-(4-cyclopropylpyridin-2-yl)benzamide] | – | – | – | < 100 nM | – | < 50 nM
7 | C=CC(=O)N1CCC(c2nc(-c3ccc(C(=O)Nc4cc(OC)ccn4)cc3)n3c(N)nccc23)C1 (stereo not drawn) [C240, 4-(1-(1-acryloylpyrrolidin-3-yl)-5-amino-imidazo[1,5-c]pyrimidin-3-yl)-N-(4-methoxypyridin-2-yl)benzamide] | – | – | – | < 100 nM | – | < 50 nM

Second part, the molecule after the results:

Row | inhibition at 0.1 µM (EGFR (ErbB1) L858R) | inhibition at 0.1 µM (EGFR (ErbB1) L858R/T790M) | inhibition at 0.1 µM (BTK) | IC50 (BTK) | inhibition at 0.1 µM (EGFR (ErbB1) T790M) | IC50 (OCI-Ly10 cells) | SMILES
8 | < 50% | < 50% | > 50% | < 100 nM | < 50% | – | C=CC(=O)N1CCC(c2cc(-c3ccc(C(=O)Nc4cc(Cl)ccn4)cc3)n3cnccc23)C1 (stereo not drawn) [C064, 4-(5-(1-acryloylpyrrolidin-3-yl)pyrrolo[1,2-c]pyrimidin-7-yl)-N-(4-chloropyridin-2-yl)benzamide]
9 | – | – | > 50% | < 100 nM | – | < 50 nM | C=CC(=O)N1CCC(c2nc(-c3ccc(C(=O)Nc4ccccn4)cc3)n3c(N)nccc23)C1 (stereo not drawn) [C185, 4-(1-(1-acryloylpyrrolidin-3-yl)-5-amino-imidazo[1,5-c]pyrimidin-3-yl)-N-(pyridin-2-yl)benzamide]
10 | – | – | > 50% | < 100 nM | – | < 50 nM | C=CC(=O)N1CCC(c2nc(-c3ccc(Oc4ccccn4)cc3)n3c(N)nccc23)C1 (stereo not drawn) [C186, 1-(3-(5-amino-3-(4-(pyridin-2-yloxy)phenyl)imidazo[1,5-c]pyrimidin-1-yl)pyrrolidin-1-yl)prop-2-en-1-one]
11 | – | – | > 50% | < 100 nM | – | < 50 nM | C=CC(=O)N1CCC(c2nc(-c3ccc(Oc4cc(C(F)(F)F)ccn4)cc3)n3c(N)nccc23)C1 (stereo not drawn) [C196, 1-(3-(5-amino-3-(4-((4-(trifluoromethyl)pyridin-2-yl)oxy)phenyl)imidazo[1,5-c]pyrimidin-1-yl)pyrrolidin-1-yl)prop-2-en-1-one]
12 | – | – | > 50% | < 100 nM | – | < 50 nM | C=CC(=O)N1CCC(c2nc(-c3ccc(C(=O)Nc4ccccn4)cc3)n3c(N)ncnc23)C1 (stereo not drawn) [C197, 4-(8-(1-acryloylpyrrolidin-3-yl)-4-amino-imidazo[1,5-a][1,3,5]triazin-6-yl)-N-(pyridin-2-yl)benzamide]
13 | – | – | > 50% | < 100 nM | – | < 50 nM | C=CC(=O)N1CCC(c2nc(-c3ccc(C(=O)Nc4cc(C5CC5)ccn4)cc3)n3c(N)ncnc23)C1 (stereo not drawn) [C199, 4-(8-(1-acryloylpyrrolidin-3-yl)-4-amino-imidazo[1,5-a][1,3,5]triazin-6-yl)-N-(4-cyclopropylpyridin-2-yl)benzamide]
